Measurements: ChEMBL document CHEMBL1201862, “PubChem BioAssay data set” (2004)
The source made the active and inactive calls.

Tests used:
[1] = target: Peroxisome proliferator-activated receptor gamma/Nuclear receptor coactivator 1 (Homo sapiens, UniProt P37231); assay: TR-FRET dose response biochemical High Throughput Screening assay for agonists of the steroid receptor coactivator 1 (SRC-1) recruitment by the peroxisome proliferator-activated receptor gamma (PPAR gamma): non-selective agonists. [Related pubchem assays (depositor defined):AID1300, AID1808, AID504735, AID631]; format: protein assay
[2] = target: Peroxisome proliferator-activated receptor gamma/Nuclear receptor coactivator 3 (Homo sapiens, UniProt P37231); assay: TR-FRET dose response biochemical High Throughput Screening assay for agonists of the steroid receptor coactivator 3 (SRC-3) recruitment by the peroxisome proliferator-activated receptor gamma (PPAR gamma): non-selective agonists. [Related pubchem assays: 1301 (Confirmation screen.), 1048 (Primary screen.)]; format: functional
[3] = target: Peroxisome proliferator-activated receptor gamma/Nuclear receptor coactivator 2 (Homo sapiens, UniProt P37231); assay: TR-FRET dose response biochemical High Throughput Screening assay for agonists of the steroid receptor coactivator 2 (SRC-2) recruitment by the peroxisome proliferator-activated receptor gamma (PPAR gamma): non-selective agonists. [Related pubchem assays: 1297, 1032 ]; format: functional
[4] = Luminescence Cell-Based Dose Response HTS to Identify Inhibitors of 5'UTR Stem-Loop Driven Prion Protein mRNA Translation in H4 Neuroglioblastoma Cells. [Related pubchem assays: 1827 (Project Summary), 1813 (Primary HTS)]; format: functional
[5] = alpha-synuclein stem-loop luciferase translation blockers – H4 neuroglioma cells, luminescence, confirmation (AID 1988); format: functional, cell-based
[6] = target: Luciferin 4-monooxygenase (Photinus pyralis, UniProt P08659); assay: inhibition of purified Photinus pyralis luciferase – biochemical, luminescence, dose response (AID 1891)
[7] = Luminescence Cell-Based Dose Confirmation HTS to Identify Inhibitors of Platelet Dense Granule Release. [Related pubchem assays: 1663 (Primary HTS), 1678 (Summary of Project)]; format: functional
[8] = target: T1, Short transient receptor potential channel 4 (Mus musculus, UniProt Q9QUQ5); assay: block of DAMGO-driven TRPC4 calcium entry – cell-based, HEK293 TRPC4/mu-opioid, Fluo-4 calcium, dose response (AID 434942); format: functional;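 also: potency of inhibitors blocking the TRPC4 calcium response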
T1 sequence (Q9QUQ5 whole entry): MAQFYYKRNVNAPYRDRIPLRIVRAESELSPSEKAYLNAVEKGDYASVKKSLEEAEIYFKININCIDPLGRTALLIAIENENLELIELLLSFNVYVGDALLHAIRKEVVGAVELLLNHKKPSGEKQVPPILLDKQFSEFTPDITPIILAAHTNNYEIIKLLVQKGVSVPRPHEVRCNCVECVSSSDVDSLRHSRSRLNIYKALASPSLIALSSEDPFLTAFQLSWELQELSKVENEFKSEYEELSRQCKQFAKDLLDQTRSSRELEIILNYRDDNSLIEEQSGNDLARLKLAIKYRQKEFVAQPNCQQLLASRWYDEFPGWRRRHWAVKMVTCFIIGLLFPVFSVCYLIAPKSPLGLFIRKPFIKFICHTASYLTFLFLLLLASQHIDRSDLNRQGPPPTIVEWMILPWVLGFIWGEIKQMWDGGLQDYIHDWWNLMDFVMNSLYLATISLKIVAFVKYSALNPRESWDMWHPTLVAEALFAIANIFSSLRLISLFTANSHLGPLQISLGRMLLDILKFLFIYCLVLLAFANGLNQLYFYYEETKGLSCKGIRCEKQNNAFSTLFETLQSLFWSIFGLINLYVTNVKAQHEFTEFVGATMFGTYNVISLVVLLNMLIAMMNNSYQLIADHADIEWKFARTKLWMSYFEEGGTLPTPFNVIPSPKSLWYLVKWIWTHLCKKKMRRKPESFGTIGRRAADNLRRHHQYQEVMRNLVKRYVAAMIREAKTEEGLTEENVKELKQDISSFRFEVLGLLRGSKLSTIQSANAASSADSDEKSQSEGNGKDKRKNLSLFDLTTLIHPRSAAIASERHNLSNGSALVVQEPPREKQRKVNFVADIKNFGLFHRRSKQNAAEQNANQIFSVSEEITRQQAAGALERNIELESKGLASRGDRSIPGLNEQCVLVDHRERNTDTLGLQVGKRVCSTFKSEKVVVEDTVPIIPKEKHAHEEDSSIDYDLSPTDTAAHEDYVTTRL

Large T antigen = Large T antigen (Simian virus 40, UniProt P03070); format: functional, Betapolyomavirus macacae;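 also: Confirmatory-stage PubChem screen for compounds that inhibit SV40 T antigen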
[9] = target: T2, Calpain-2 catalytic subunit (Sus scrofa, UniProt P43367); assay: m-calpain protease blockers, concentration series – biochemical, fluorogenic peptide substrate, dose response (AID 1420); format: functional
T2 sequence (P43367 whole entry): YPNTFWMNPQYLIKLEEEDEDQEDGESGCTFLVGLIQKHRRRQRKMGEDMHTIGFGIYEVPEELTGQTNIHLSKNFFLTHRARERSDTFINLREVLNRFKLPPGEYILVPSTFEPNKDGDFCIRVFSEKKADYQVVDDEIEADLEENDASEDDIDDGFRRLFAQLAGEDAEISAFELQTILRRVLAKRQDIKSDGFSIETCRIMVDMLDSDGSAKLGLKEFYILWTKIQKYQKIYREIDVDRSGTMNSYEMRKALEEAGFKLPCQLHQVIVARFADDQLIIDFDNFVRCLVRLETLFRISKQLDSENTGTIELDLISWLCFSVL

Coagulation factor XII = target: T3, Coagulation factor XII (Homo sapiens, UniProt P00748); format: functional;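 also: activated factor XIIa alpha cleaving a fluorogenic AMC peptide substrate; inhibitor potency from loss of enzyme activity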
T3 sequence (P00748 whole entry): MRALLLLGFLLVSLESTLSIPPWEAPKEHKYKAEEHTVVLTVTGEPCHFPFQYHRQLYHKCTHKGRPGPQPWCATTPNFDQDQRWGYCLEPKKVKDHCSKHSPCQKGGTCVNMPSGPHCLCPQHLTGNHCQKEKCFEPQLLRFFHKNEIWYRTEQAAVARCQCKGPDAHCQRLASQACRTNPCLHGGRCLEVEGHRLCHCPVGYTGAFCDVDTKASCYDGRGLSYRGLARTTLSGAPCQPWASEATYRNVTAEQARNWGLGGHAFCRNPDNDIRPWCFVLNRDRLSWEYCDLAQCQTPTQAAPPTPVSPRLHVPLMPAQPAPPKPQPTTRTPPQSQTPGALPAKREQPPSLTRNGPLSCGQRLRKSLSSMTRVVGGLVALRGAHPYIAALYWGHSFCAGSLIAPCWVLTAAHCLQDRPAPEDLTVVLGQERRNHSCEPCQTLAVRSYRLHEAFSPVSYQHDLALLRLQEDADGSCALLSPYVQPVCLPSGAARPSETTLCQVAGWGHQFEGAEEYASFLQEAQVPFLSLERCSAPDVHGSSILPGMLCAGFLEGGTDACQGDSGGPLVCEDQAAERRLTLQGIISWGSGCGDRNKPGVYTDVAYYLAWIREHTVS

[10] = target: T4, RNA-binding protein pos-1 (Caenorhabditis elegans, UniProt G5EF15); assay: disruptors of C. elegans POS-1 RNA interaction – biochemical, fluorescence polarization, dose response (AID 1964);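 also: purified POS-1 fused to maltose binding protein made in E. coli; potency of compounds blocking POS-1 binding to fluorescent RNA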
T4 sequence (G5EF15 whole entry): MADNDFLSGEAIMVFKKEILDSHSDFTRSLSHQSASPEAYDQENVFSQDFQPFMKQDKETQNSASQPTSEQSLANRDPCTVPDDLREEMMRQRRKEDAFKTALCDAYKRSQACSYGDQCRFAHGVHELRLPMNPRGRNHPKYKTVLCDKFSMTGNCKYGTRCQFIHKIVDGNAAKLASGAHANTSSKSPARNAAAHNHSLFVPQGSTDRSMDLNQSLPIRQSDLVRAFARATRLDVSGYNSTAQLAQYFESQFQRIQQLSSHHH

[11] = target: T5, Zinc finger protein mex-5 (Caenorhabditis elegans, UniProt Q9XUB2); assay: potency of MEX-5 RNA-binding blockers – biochemical, C. elegans, fluorescence polarization, dose response (AID 1960)
T5 sequence (Q9XUB2 whole entry): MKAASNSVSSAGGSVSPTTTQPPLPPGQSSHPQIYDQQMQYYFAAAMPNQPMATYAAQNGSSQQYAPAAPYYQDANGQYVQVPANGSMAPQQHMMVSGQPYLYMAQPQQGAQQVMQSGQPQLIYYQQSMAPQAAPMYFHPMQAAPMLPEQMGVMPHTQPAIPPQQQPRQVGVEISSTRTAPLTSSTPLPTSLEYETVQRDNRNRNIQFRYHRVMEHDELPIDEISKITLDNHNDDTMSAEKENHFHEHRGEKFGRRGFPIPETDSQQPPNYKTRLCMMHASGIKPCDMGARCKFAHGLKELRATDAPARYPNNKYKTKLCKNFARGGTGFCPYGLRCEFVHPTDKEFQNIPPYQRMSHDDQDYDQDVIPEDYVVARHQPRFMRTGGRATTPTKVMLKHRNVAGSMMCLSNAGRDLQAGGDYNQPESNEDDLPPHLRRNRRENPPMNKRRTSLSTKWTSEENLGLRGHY

[12] = NIH-3T3 fibroblast cytotoxicity, dose response, cytotoxicity control, cell-based, fluorescence, Alamar Blue, secondary assay (AID 2327); format: functional;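 also: NIH-3T3 mouse fibroblasts cultured with fluconazole at 8 µg/mL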
[13] = fluconazole-exposed Candida albicans growth modulators – fluorescence, retest, confirmation (AID 2467); format: functional, cell-based

Chain of Peroxisome proliferator-activated receptor gamma/Nuclear receptor coactivator 1 (P37231 whole entry): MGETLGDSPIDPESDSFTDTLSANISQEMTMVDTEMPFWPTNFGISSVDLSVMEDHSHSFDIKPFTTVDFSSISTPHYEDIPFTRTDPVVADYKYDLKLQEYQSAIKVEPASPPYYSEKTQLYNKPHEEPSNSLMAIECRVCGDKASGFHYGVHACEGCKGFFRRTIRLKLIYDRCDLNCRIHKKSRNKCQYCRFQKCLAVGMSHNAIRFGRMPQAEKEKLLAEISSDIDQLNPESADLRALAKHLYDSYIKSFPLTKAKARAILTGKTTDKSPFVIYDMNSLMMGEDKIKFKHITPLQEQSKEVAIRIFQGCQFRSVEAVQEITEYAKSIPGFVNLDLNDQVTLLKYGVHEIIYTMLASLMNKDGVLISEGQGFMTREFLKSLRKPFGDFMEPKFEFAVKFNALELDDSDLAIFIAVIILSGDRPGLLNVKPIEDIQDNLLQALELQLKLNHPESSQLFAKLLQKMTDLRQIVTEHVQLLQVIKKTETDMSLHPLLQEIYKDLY
Chain of Peroxisome proliferator-activated receptor gamma/Nuclear receptor coactivator 1 (Q15788 whole entry, further chain): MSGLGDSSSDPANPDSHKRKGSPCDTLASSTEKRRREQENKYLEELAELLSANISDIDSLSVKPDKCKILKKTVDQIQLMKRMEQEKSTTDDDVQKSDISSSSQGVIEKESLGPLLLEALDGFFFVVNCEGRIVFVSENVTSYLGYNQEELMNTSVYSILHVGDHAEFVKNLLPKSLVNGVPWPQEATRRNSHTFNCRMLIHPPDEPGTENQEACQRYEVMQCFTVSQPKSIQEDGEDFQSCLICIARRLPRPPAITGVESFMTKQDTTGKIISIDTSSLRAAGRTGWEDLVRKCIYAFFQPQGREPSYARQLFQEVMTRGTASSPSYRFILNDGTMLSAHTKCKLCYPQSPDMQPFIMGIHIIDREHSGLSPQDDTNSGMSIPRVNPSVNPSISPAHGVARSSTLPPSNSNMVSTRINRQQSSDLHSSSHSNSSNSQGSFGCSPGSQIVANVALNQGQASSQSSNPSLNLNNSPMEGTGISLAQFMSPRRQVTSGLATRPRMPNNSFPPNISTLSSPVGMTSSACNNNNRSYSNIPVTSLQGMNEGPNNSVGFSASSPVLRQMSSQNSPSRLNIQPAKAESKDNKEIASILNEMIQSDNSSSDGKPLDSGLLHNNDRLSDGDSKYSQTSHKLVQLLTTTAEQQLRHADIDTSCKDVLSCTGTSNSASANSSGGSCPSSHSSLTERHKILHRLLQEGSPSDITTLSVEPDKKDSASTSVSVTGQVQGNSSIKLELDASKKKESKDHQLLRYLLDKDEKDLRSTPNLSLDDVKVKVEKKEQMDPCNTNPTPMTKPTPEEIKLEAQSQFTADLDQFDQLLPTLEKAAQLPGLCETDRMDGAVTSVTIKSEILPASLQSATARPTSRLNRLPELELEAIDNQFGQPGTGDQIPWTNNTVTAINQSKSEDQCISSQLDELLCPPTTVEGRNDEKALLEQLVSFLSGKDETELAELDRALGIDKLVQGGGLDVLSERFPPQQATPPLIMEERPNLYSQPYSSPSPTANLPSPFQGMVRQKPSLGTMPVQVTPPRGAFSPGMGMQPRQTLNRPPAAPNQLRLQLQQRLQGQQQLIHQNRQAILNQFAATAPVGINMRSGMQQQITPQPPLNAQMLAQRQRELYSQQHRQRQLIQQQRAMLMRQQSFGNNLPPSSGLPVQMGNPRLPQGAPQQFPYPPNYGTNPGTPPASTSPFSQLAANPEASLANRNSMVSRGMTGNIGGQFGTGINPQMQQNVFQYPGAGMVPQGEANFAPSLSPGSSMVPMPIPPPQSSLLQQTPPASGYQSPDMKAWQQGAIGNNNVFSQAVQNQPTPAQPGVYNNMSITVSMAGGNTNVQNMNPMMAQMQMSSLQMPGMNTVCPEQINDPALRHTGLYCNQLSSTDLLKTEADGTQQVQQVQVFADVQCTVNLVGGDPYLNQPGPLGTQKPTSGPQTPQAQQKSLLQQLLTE
Chain of Peroxisome proliferator-activated receptor gamma/Nuclear receptor coactivator 2 (P37231 whole entry): as the sequence (P37231 whole entry) above
Chain of Peroxisome proliferator-activated receptor gamma/Nuclear receptor coactivator 2 (Q15596 whole entry, further chain): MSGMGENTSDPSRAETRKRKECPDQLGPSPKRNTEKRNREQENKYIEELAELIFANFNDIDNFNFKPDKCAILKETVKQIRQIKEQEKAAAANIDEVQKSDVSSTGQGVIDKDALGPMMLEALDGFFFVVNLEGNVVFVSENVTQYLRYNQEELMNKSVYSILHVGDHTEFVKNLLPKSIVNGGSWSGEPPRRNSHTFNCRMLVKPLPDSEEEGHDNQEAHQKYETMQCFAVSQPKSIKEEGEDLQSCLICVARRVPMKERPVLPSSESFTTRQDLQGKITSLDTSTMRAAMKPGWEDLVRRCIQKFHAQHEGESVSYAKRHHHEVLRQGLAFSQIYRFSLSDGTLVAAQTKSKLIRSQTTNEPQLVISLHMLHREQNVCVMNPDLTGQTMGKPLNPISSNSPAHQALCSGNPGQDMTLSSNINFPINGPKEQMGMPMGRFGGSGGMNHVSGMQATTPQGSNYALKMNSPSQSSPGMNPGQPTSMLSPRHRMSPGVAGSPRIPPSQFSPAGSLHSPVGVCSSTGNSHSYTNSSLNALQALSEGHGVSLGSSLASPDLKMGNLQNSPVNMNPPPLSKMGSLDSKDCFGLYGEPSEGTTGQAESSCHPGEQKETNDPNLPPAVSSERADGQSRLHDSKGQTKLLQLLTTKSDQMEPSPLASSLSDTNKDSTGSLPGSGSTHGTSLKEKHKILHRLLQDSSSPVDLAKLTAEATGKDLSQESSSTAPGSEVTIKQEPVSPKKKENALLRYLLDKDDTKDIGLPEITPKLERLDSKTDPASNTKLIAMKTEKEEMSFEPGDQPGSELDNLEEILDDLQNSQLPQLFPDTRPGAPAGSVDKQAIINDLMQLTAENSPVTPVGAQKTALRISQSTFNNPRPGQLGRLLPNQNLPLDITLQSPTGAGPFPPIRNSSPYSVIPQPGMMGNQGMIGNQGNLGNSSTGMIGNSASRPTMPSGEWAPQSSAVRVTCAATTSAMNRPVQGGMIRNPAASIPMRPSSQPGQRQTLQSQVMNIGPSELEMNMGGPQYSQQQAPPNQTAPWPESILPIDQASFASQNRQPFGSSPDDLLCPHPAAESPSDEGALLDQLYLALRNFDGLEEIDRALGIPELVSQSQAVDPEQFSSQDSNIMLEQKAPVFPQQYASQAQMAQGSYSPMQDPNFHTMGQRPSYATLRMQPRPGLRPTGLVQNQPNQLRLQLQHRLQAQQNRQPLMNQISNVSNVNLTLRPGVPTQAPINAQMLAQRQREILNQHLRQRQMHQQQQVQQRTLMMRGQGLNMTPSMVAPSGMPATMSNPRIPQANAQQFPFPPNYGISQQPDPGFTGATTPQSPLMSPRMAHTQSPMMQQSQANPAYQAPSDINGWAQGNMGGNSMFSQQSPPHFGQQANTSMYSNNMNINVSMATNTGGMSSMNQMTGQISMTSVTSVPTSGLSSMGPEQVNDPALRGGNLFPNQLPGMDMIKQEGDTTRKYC
Chain of Large T antigen (P03070 whole entry): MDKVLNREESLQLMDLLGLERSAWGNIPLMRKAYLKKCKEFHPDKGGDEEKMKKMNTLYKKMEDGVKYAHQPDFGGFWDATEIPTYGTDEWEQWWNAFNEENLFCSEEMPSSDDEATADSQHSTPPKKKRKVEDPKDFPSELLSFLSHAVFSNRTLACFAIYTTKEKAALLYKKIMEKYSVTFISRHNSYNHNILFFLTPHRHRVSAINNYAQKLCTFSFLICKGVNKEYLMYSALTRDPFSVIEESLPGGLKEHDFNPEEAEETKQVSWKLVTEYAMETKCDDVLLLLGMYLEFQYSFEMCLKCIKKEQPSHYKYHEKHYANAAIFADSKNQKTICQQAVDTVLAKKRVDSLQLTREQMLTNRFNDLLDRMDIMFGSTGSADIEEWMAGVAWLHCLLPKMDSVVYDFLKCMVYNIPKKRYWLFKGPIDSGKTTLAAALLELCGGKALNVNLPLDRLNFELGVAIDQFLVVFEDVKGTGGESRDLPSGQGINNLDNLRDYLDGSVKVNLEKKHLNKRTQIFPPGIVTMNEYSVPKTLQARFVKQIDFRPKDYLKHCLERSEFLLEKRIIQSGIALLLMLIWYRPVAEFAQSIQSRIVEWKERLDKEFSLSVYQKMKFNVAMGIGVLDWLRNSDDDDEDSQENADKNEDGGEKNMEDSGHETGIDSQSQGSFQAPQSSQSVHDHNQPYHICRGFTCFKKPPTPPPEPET

c1ccc(-c2nc(-c3cccs3)[nH]c2-c2ccccc2)cc1
EC50 [1]: 42.6 µM (inactive) | EC50 [2]: > 79.4 µM (not active) | EC50 [3]: 32.3 µM (not active)

c1ccc2nc(-c3nc4ccccc4[nH]3)ccc2c1
EC50 [4]: 11.1 µM (inconclusive) | EC50 [5]: 9.4 µM (active) | EC50 [6]: 0.49 µM (active) | EC50 [7]: 2.16 µM (active)

O=[N+]([O-])c1cccc(-c2nnc(C3CC3)o2)c1
EC50 [8]: 3.76 µM (active)

C(=N\c1ccc(N2CCOCC2)cc1)/c1c[nH]c2ccccc12
IC50 (Large T antigen): 4.34 µM (active)

Cn1c(S)nnc1-c1sc2cc(C(F)(F)F)cnc2c1-c1ccccc1
EC50 [1]: 3.6 µM (active) | EC50 [2]: 16.3 µM (not active) | EC50 [3]: 5.17 µM (active)

COC(=O)c1c(N=C(S)Nc2ccccc2Cl)sc(C)c1C
EC50 [1]: 84.9 µM (inactive) | EC50 [2]: > 79.4 µM (not active) | EC50 [3]: 28.6 µM (not active)

COc1ccc(O)c(CN2CCCC(C(=O)c3sccc3C)C2)c1 (centres undefined)
EC50 [8]: 3.35 µM (active)

COc1ccc(Cl)cc1N=C(N)Nc1nc(C)cc(C)n1
EC50 [8]: 2.11 µM (active)

COc1ccc(-c2nc(C[S+]([O-])CC(=O)NCCc3ccc(C)cc3)c(C)o2)cc1OC (centres undefined)
EC50 [6]: > 112 µM (not active) | EC50 [7]: > 112 µM (not active)

Cc1ccsc1/C=N/Nc1nc(O)nnc1C
EC50 [6]: 0.519 µM (active) | EC50 [7]: 5.47 µM (active)

CCOC(=O)[C@H]1O[C@@H]1C(=O)N[C@@H](CC(C)C)C(=O)NCCC(C)C [ALOXISTATIN]
IC50 [9]: 1.77 µM (active)

COC(=O)c1sccc1NC(=O)Nc1cccc(C)c1
EC50 [6]: 0.21 µM (active) | EC50 [7]: 2.5 µM (active)

Fc1cccc(Nc2c3c(nc4ccccc24)CCC3)c1
EC50 [8]: 1.19 µM (active)

O=C(CN1C(=O)c2cccc3cccc1c23)NCc1ccc2c(c1)OCO2
IC50 (Coagulation factor XII): > 50 µM (inactive)

CCOC(=O)c1ccc2c(c1)nc(S)n2CC
EC50 [1]: 17.5 µM (inactive) | EC50 [2]: > 79.4 µM (not active) | EC50 [3]: 15.7 µM (not active)

Cc1ccc(S(=O)(=O)N2CCCOC2CNC(=O)C(=O)NCCc2c[nH]c3ccccc23)cc1 (centres undefined)
IC50 (Large T antigen): 86.8 µM (active)

CCOc1ccc(N2C(=O)S/C(=C\c3cccn3C)C2=O)cc1
EC50 [10]: > 300 µM (inconclusive) | EC50 [11]: > 300 µM (not active) | EC50 [6]: > 112 µM (not active) | EC50 [7]: > 112 µM (not active)

CN(Cc1ccccc1)c1ccc(S(=O)(=O)N2CCOCC2)cn1
EC50 [6]: > 112 µM (not active) | EC50 [7]: > 112 µM (not active)

CSCCNC(=O)c1ccc(OC2CCN(CCc3ccccc3)CC2)cc1
EC50 [8]: 0.473 µM (active)

CCCn1c(=O)c2ccccc2n2c(SCCOc3ccccc3)nnc12
EC50 [8]: 5.96 µM (active)

O=C(Oc1ccc2c(c1)OCO2)C12CC3CC(CC(C3)C1)C2
IC50 [9]: 5.49 µM (not active)

COc1cc(/C=N/Nc2nc3ccccc3[nH]2)cc(OC)c1O
IC50 (Large T antigen): 7.09 µM (active)

O=C(OCC(=O)c1ccc(Cl)s1)c1ccc2ccccc2n1
IC50 (Coagulation factor XII): > 50 µM (inactive)

O=S(=O)(Nc1ccccc1)c1ccc(-c2csnn2)cc1
IC50 (Coagulation factor XII): > 50 µM (inactive)

O=C(CSc1cccc[n+]1[O-])c1cc(Cl)ccc1Cl
EC50 [12]: 35.8 µM (active) | EC50 [13]: > 38 µM (not active) | IC50 [9]: > 50 µM (not active)

CC1Cc2ccccc2N1C(=O)COC(=O)C1(c2ccccc2F)CCCC1 (centres undefined)
IC50 [9]: 7.23 µM (not active)

Cc1ccc(-c2nc(C[S+]([O-])CC(=O)NCCCN3CC(C)CC(C)C3)c(C)o2)cc1 (centres undefined)
EC50 [6]: > 112 µM (not active) | EC50 [7]: > 112 µM (not active)

O=C(O)c1ccc(N=C(NS(=O)(=O)c2ccc(Cl)cc2)c2ccccc2)cc1
IC50 (Coagulation factor XII): > 50 µM (inactive)
